{"source": "ChEMBL document CHEMBL5360570", "about": "“Discovery of pyrazolo[3,4-b]pyridine derivatives as novel and potent Mps1 inhibitors for the treatment of cancer” (Eur J Med Chem, 2023)", "key": {"[1]": {"assay": "AUC (0 to t) in Sprague-Dawley rat at 10 mg/kg, po measured upto 24 hrs by LC-MS/MS analysis", "format": "ADME, organism-based", "design": "time < 24 hrs, dose 10 mg/kg, route po", "settings": "in vivo"}, "[2]": {"target": "Non-receptor tyrosine-protein kinase TNK1 (Homo sapiens) (UniProt Q13470)", "sequence (Q13470 whole entry)": "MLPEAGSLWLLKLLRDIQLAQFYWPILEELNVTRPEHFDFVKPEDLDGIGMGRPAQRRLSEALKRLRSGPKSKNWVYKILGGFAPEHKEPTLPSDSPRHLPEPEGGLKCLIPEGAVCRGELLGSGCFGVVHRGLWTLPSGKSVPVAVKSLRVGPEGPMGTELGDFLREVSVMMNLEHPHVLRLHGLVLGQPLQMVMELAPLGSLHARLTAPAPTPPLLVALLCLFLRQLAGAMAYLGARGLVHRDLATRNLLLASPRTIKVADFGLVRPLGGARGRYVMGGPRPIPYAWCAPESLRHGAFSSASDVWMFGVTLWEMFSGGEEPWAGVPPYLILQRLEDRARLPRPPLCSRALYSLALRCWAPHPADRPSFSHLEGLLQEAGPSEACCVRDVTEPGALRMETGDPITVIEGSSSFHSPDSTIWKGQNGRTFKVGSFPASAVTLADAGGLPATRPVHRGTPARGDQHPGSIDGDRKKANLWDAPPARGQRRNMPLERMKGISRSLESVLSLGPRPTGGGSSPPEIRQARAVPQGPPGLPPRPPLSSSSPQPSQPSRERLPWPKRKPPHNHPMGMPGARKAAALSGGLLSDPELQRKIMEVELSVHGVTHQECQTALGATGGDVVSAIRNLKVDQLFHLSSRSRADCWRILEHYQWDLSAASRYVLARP", "assay": "Inhibition of TNK1 (unknown origin) assessed as residual activity at 1 uM relative to control"}, "[3]": {"assay": "AUC (0 to infinity) in Sprague-Dawley rat at 2 mg/kg, iv measured upto 24 hrs by LC-MS/MS analysis", "format": "ADME, organism-based", "design": "dose 2 mg/kg, time < 24 hrs, route iv", "settings": "in vivo"}, "ALK-TPM3 (Homo sapiens)": {"target": "ALK-TPM3 (Homo sapiens) (UniProt Q9UM73+P06753)", "assay": "Inhibition of ALK-TPM3 (unknown origin) assessed as residual activity at 1 uM relative to control", "format": "protein assay"}, "[4]": {"tested_on": "ALK tyrosine kinase receptor (Homo sapiens), Q9UM73 [L1152R]", "assay": "Inhibition of ALK L1152R mutant (unknown origin) assessed as residual activity at 1 uM relative to control"}, "[5]": {"tested_on": "Fibroblast growth factor receptor 2 (Homo sapiens), P21802 [V564F]", "assay": "Inhibition of FGFR2 V564F mutant (unknown origin) assessed as residual activity at 1 uM relative to control"}, "[6]": {"target": "Tyrosine-protein kinase Fer (Homo sapiens) (UniProt P16591)", "sequence (P16591 whole entry, looked up)": "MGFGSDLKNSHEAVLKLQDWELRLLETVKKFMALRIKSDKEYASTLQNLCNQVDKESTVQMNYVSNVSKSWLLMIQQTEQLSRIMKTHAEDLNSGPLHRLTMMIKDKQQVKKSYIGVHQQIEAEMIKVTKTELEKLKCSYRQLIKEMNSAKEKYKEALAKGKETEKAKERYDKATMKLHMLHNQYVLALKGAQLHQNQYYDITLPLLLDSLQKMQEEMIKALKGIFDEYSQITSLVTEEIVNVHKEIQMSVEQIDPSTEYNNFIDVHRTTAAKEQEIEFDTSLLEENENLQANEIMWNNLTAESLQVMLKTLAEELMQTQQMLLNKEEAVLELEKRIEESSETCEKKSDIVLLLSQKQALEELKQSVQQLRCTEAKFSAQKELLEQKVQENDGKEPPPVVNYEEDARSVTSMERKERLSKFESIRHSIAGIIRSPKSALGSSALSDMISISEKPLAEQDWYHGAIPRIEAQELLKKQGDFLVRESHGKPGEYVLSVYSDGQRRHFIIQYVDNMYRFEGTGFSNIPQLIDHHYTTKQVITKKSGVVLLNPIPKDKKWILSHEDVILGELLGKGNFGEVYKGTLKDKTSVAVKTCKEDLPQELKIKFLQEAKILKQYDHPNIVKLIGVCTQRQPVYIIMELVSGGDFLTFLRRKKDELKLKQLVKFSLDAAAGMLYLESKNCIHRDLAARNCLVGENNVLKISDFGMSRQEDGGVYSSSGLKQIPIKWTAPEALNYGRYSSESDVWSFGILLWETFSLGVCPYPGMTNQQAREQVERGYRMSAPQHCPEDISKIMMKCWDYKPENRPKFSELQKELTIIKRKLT", "assay": "Inhibition of FER (unknown origin) assessed as residual activity at 1 uM relative to control"}, "[7]": {"assay": "Oral bioavailability in Sprague-Dawley rat at 10 mg/kg measured upto 24 hrs by LC-MS/MS analysis", "format": "ADME, organism-based", "settings": "in vivo"}, "[8]": {"target": "Activated CDC42 kinase 1 (Homo sapiens) (UniProt Q07912)", "sequence (Q07912 whole entry, looked up)": "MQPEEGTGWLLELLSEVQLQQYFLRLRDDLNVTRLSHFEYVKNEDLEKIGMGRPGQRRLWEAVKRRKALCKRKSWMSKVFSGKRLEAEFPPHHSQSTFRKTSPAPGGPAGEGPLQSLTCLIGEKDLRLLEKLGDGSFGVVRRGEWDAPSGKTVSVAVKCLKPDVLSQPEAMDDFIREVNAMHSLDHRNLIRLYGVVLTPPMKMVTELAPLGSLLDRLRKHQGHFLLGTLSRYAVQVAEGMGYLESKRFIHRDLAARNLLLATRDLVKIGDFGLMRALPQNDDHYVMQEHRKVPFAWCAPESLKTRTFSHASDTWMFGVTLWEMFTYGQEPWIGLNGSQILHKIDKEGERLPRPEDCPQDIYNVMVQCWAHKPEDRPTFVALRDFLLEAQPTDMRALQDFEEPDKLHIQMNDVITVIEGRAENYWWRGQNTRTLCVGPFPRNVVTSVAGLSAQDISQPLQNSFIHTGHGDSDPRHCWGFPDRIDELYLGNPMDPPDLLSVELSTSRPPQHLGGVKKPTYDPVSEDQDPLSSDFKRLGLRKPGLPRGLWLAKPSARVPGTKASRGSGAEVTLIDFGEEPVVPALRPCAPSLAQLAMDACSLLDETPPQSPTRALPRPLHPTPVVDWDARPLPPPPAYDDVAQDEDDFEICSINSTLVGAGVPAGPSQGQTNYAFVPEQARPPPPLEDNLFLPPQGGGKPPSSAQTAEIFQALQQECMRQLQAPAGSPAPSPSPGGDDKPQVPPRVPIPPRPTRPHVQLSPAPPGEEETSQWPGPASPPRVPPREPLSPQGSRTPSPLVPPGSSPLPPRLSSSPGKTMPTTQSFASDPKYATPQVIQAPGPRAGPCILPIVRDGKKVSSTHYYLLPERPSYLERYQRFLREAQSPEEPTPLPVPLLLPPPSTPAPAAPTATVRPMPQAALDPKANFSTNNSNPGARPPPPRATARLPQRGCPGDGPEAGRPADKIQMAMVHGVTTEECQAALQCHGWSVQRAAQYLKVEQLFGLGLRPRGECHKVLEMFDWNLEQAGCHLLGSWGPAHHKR", "assay": "Inhibition of ACK1 (unknown origin) assessed as residual activity at 1 uM relative to control"}, "MDA-MB-468": {"tested_on": "MDA-MB-468", "assay": "Antitumor activity against human MDA-MB-468 cells xenografted in BALB/c nude mouse assessed as tumor growth inhibition at 60 mg/kg, po administered once daily for 21 days", "format": "functional", "settings": "MDA-MB-468, 504 h, time 21 day, read-out: TGI"}, "[9]": {"assay": "Metabolic stability in human liver microsome assessed as parent compound remaining preincubated for 10 mins followed by NADPH addition and measured at 60 mins by LC-MS/MS analysis", "format": "ADME", "settings": "liver microsomes, time 70 min, read-out: Stability"}, "[10]": {"tested_on": "ALK tyrosine kinase receptor (Homo sapiens), Q9UM73 [S1206R]", "assay": "Inhibition of ALK S1206R mutant (unknown origin) assessed as residual activity at 1 uM relative to control"}, "[11]": {"assay": "Antiproliferative activity against human RBE cells assessed inhibition of cell growth incubated for 72 hrs by CCK-8 assay", "format": "functional, cell-based"}, "[12]": {"target": "Calcium/calmodulin-dependent protein kinase type II subunit alpha (Homo sapiens) (UniProt Q9UQM7)", "sequence (Q9UQM7 whole entry)": "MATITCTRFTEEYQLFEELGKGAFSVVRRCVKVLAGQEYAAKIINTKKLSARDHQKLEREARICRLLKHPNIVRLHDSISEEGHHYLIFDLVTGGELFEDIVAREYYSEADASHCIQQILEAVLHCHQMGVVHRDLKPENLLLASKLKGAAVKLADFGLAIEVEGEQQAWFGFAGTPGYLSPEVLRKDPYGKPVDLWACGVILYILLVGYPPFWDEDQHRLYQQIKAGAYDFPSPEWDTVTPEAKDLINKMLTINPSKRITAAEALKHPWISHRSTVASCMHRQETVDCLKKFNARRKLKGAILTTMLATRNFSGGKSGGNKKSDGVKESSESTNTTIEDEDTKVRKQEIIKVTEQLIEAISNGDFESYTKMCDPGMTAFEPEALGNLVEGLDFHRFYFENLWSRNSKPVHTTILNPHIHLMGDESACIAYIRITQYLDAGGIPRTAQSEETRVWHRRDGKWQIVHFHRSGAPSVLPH", "assay": "Inhibition of CaMK2alpha (unknown origin) assessed as residual activity at 1 uM relative to control"}, "ROS1-GOPC (Homo sapiens)": {"target": "ROS1-GOPC (Homo sapiens) (UniProt P08922+Q9HD26)", "assay": "Inhibition of ROS1-GOPC (unknown origin) assessed as residual activity at 1 uM relative to control", "format": "protein assay"}, "[13]": {"target": "Serine/threonine-protein kinase MARK1 (Homo sapiens) (UniProt Q9P0L2)", "sequence (Q9P0L2 whole entry, looked up)": "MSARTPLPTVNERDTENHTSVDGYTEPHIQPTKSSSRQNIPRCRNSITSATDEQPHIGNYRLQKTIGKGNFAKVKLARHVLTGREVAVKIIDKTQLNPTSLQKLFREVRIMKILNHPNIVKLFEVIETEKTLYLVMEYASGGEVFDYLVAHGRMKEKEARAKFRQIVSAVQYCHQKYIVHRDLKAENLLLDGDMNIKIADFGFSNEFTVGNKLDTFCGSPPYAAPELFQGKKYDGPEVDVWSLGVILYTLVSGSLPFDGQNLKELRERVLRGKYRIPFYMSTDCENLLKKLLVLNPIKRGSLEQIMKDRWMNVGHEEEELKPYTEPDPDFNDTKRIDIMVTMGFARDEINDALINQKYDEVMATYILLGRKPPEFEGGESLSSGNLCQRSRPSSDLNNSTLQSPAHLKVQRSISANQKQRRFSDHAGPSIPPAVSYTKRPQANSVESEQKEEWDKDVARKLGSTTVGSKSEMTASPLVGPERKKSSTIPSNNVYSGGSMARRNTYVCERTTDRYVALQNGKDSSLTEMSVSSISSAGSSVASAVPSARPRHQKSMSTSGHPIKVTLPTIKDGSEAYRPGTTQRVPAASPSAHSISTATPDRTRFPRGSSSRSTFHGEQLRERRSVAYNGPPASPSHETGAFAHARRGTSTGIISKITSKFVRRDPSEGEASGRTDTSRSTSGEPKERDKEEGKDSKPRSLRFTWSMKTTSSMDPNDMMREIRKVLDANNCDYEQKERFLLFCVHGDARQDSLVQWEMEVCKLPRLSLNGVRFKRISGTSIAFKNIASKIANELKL", "assay": "Inhibition of MARK1 (unknown origin) assessed as residual activity at 1 uM relative to control"}, "[14]": {"target": "LIM domain kinase 1 (Homo sapiens) (UniProt P53667)", "assay": "Inhibition of LIMK1 (unknown origin) assessed as residual activity at 1 uM relative to control"}, "[15]": {"assay": "Tmax in Sprague-Dawley rat at 2 mg/kg, iv measured upto 24 hrs by LC-MS/MS analysis", "format": "ADME, organism-based", "settings": "in vivo"}, "[16]": {"assay": "Metabolic stability in human liver microsome assessed as parent compound remaining preincubated for 10 mins followed by NADPH addition and measured immediately by LC-MS/MS analysis", "format": "ADME", "settings": "liver microsomes, read-out: Stability"}, "[17]": {"target": "Leukocyte tyrosine kinase receptor (Homo sapiens) (UniProt P29376)", "sequence (P29376 whole entry)": "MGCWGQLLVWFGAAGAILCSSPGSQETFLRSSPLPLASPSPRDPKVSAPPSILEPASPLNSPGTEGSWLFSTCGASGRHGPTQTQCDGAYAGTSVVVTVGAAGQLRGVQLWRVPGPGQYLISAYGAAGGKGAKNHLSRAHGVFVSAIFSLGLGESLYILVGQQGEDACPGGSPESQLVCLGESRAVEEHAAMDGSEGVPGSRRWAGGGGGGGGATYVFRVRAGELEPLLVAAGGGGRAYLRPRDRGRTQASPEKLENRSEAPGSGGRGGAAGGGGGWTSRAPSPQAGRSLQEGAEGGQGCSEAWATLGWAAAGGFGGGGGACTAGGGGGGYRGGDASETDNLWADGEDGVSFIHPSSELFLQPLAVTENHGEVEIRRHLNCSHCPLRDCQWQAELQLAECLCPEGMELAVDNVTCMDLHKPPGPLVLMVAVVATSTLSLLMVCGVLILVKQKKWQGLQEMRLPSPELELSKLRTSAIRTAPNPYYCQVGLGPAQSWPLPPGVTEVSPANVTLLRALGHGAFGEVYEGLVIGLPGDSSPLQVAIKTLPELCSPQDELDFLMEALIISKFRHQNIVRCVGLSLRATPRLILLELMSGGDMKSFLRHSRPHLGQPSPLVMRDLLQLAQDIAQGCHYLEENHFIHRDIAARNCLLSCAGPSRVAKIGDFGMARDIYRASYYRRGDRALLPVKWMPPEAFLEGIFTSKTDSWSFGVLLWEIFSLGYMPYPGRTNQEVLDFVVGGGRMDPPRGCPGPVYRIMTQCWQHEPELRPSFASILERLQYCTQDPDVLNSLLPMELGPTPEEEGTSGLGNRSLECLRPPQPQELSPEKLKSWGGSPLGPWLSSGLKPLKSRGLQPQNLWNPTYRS", "assay": "Inhibition of TYK1 (unknown origin) assessed as residual activity at 1 uM relative to control"}}}
{"smiles": "CCc1cccc(CC)c1N1CCn2cc(-c3nc(Nc4ccc(N5CCN(C(C)=O)CC5)cc4OC)nc4[nH]ncc34)cc2C1=O", "values": [{"measurement": "AUC(0-t) at 24 h", "setting": "[1]", "result": 204, "unit": "ng·h/mL"}, {"measurement": "Activity", "setting": "[2]", "result": "< 10", "unit": "%"}, {"measurement": "AUC(0-inf)", "setting": "[3]", "result": 1050, "unit": "ng·h/mL"}, {"measurement": "Activity", "setting": "ALK-TPM3 (Homo sapiens)", "result": "< 10", "unit": "%"}, {"measurement": "Activity", "setting": "[4]", "result": "< 10", "unit": "%"}, {"measurement": "Activity", "setting": "[5]", "result": "< 10", "unit": "%"}, {"measurement": "Activity", "setting": "[6]", "result": "< 10", "unit": "%"}, {"measurement": "bioavailability", "setting": "[7]", "result": 3.95, "unit": "%"}, {"measurement": "Activity", "setting": "[8]", "result": "< 10", "unit": "%"}, {"measurement": "inhibition in vivo at 60 mg/kg", "setting": "MDA-MB-468", "result": 34, "unit": "%"}, {"measurement": "remaining at 1 h", "setting": "[9]", "result": 29.4, "unit": "%"}, {"measurement": "Activity", "setting": "[10]", "result": "< 10", "unit": "%"}, {"measurement": "IC50", "setting": "[11]", "result": "> 10", "unit": "µM"}, {"measurement": "Activity", "setting": "[12]", "result": "< 10", "unit": "%"}, {"measurement": "Activity", "setting": "ROS1-GOPC (Homo sapiens)", "result": "< 10", "unit": "%"}, {"measurement": "Activity", "setting": "[13]", "result": "< 10", "unit": "%"}, {"measurement": "Activity", "setting": "[14]", "result": "< 10", "unit": "%"}, {"measurement": "Tmax", "setting": "[15]", "result": 4.98, "unit": "min"}, {"measurement": "remaining at 0 min", "setting": "[16]", "result": 100, "unit": "%"}, {"measurement": "Activity", "setting": "[17]", "result": "< 10", "unit": "%"}]}
